# Measured values taken from patent US8859728B2, “Peptides that target dorsal root ganglion neurons” (Baylor College of Medicine, priority 2008, dated 2014).
# Where no end group is shown, it is not given here.
# What was measured:
# DRG neurons = test: In vivo binding of GST-peptide-fusion proteins to DRG neurons after subarachnoid injection; set-up: species or system mouse; conditions: L5 DRG; for NF-L-positive neurons positive for GST fusion protein: 5 μg into subarachnoid space, C57BL/6 mice, 1 h; for mean diameter of cells positive for GST fusion protein: in vivo, mean±SD
# Excerpt: To evaluate their binding to DRG cells in vivo, GST fusion proteins of three selected peptides were synthesized using the pGEX4T-1 vector kit (Amersham, Piscataway, N.J.) according to the manufacturer's instructions. Briefly, oligonucleotides for C-DRG1-C, C-DRG2-C, and C-DRG3-C were synthesized cloned into the pGEX4T-1 vector, and transformed in E. coli. The synthesized GST-fusion proteins were pull down by Glutathione Sepharose 4B (Amersham), and purified. The purities and reactions to anti-GST antibodies (Amersham) were confirmed by gel-electrophoresis stained by Coomassie Blue and anti-GST immunoblotting.
# Under intraperitoneal pentobarbiturate anesthesia (0.1 mg/g BW), 10 μl (500 μg/ml) of purified GST-fusion proteins (GST-DRG1, GST-DRG2, GST-DRG3, or GST alone) were injected into the subarachnoid space of 8-week-old female C57BL/6 mice (n=3 each). After 1 h, the mice were sacrificed and transcardially perfused with cold saline followed by 4% paraformaldehyde, 0.5% glutaraldehyde and 0.3% picric acid in 0.1 M PBS (pH 7.4). The L5 DRGs were then isolated and cut sectioned (10 μm) for fluorescence immunohistochemistry. After blocking with 10% horse serum, the sections were incubated overnight at 4° C. with goat anti-GST antibody (Amersham) diluted 1:1000 and rabbit anti-neurofilament L (NF-L, non-phosphorylated form, Chemicon, Temecula, Calif.) antibody diluted 1:100 in PBST. The sections were incubated for 1 h with Alexa Fluor 488-labeled anti-goat IgG and Alexa Fluor 555-labeled anti-rabbit IgG (Molecular Probes, Eugene, Oreg.) at room temperature, mounted with VECTASHIELD mounting medium containing 4′,6-diamidino-2-phenylindole (DAPI) (Vector Laboratories Inc., Burlingame, Calif.), and observed under a fluorescence microscope (Axioplan 2 imaging and Axiocam, Carl Zeiss, Jena, Germany). For quantitative analysis, the inventors took pictures of randomly selected fields and measured diameters (long and short) of the cells positive for GST, NF-L and DAPI. The mean cell size was calculated as the mean of the long and short diameters, and cell-size differences were evaluated in the three different groups.
# isolated DRG neurons = test: Double staining of isolated DRG neurons after incubation with DRG-p1 and GST-DRG3; assay type: cell-based, mouse; conditions: antibodies against phage and GST
# Excerpt: The Ph.D.-C7C Phage display Peptide Library kit expresses random 7-amino acid peptides fused to the minor coat protein (pIII) of the M13 phage. By sequence analysis, only 113 phage plaques were represented in the bound peptide, consistent with a very efficient selection process (Table 2). The final binding studies allowed identification of three phages (DRG1, DRG2, or DRG3) that occurred repeatedly. In specific embodiments of the invention, the efficient identification of these clones was the result of multiple rounds of positive and negative selection using the biopanning protocol (Liang et al., 2006), although in specific cases some of the other 84 clones (Table 2) are true DRG-binding peptide-phages. […] Moreover, the size specificity of target neurons for individual peptides was confirmed by in vivo binding experiments: GST-DRG1 and GST-DRG3 recognized small-sized neurons, and GST-DRG2 recognized large-sized neurons. Since both DRG1 and DRG3 recognized small sized neurons, two peptide ligands might bind to the same cell populations. Therefore, double staining was performed of isolated DRG neurons after the incubation with DRG-p1 and GST-DRG3 by antibodies against phage and GST, respectively. Double positive staining was obtained in 51% of DRG-p1-positive neurons, and was in 71% of GST-DRG3-positive neurons, respectively. […]
substance,measurement,setting,value
"GST-DRG1: GST fusion protein of peptide C-DRG1-C made with pGEX4T-1 in E. coli (CSPGARAFC; cysteine pairing not given here; also: GST fusion protein, GST not in chain)",NF-L-positive neurons positive for GST fusion protein,DRG neurons,39%
same,mean diameter of cells positive for GST fusion protein,DRG neurons,21.6±5.2 μm
"GST-DRG2: GST fusion protein of peptide C-DRG2-C made with pGEX4T-1 in E. coli (CDGPWRKMC; cysteine pairing not given here; also: GST fusion protein, GST not in chain)",NF-L-positive neurons positive for GST fusion protein,DRG neurons,25%
same,mean diameter of cells positive for GST fusion protein,DRG neurons,33.5±7.4 μm
"GST-DRG3: GST fusion protein of peptide C-DRG3-C made with pGEX4T-1 in E. coli (CFGQKASSC; cysteine pairing not given here; also: GST fusion protein, GST not in chain)",double positive staining (DRG-p1 and GST-DRG3) as share of neurons positive for the named ligand,isolated DRG neurons,71%
same,NF-L-positive neurons positive for GST fusion protein,DRG neurons,14%
same,mean diameter of cells positive for GST fusion protein,DRG neurons,22.7±6.6 μm
